How the values were obtained:
Assay type in all cases: in vivo
[1] = test system: ragweed (common ragweed, Ambrosia elatior); assay: Test A preemergence; conditions: Ambrosia artemisiifolia, pre-emergence, 240 h, 0 to 100 scale where 0 is no effect and 100 is complete control, read-out: Ragweed plant response rating
Method in brief: (§1)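 In a loam soil and sand blend, planted seeds got a preemergence directed soil spray, and young plants at the one- to two-leaf stage, 2–10 cm high, got a postemergence application; ~10 d greenhouse hold; injury rated visually, 0 = none, 100 = complete control.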

[2] = test system: barnyardgrass (Echinochloa crus-galli); assay: Test A preemergence; conditions: Echinochloa crus-galli, pre-emergence, 240 h, 0 to 100 scale where 0 is no effect and 100 is complete control, read-out: Barnyardgrass plant response rating
Method in brief: as §1

[3] = test system: ryegrass, Italian (Italian ryegrass, Lolium multiflorum); assay: Test A preemergence; conditions: Lolium multiflorum, pre-emergence, 240 h, 0 to 100 scale where 0 is no effect and 100 is complete control, read-out: Ryegrass, Italian plant response rating
Method in brief: as §1

Kochia (Kochia scoparia) [4] = assay: Test A preemergence; conditions: Bassia scoparia, pre-emergence, 240 h, 0 to 100 scale where 0 is no effect and 100 is complete control, read-out: Kochia plant response rating
Method in brief: as §1

[5] = test system: giant foxtail (Setaria faberii); assay: Test A preemergence; conditions: Setaria faberi, pre-emergence, 240 h, 0 to 100 scale where 0 is no effect and 100 is complete control, read-out: Foxtail, Giant plant response rating
Method in brief: as §1

[6] = test system: pigweed (Amaranthus retroflexus); assay: Test A preemergence; conditions: Amaranthus retroflexus, pre-emergence, 240 h, 0 to 100 scale where 0 is no effect and 100 is complete control, read-out: Pigweed plant response rating
[7] = test system: barnyardgrass (Echinochloa crus-galli); assay: Test B flooded paddy test; conditions: Echinochloa crus-galli, 250 g ai/ha, Flood; 0 to 100 scale where 0 is no effect and 100 is complete control; read-out: Barnyardgrass plant response rating
Method in brief: (§2)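 2-leaf plants; pots flooded 3 cm over soil; cpd added to paddy water; depth held; greenhouse 13–15 d; visual rating vs controls, 0 = no effect, 100 = complete control.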

[8] = test system: ducksalad (Heteranthera limosa); assay: Test B flooded paddy test; conditions: Heteranthera limosa, 250 g ai/ha, Flood; 0 to 100 scale where 0 is no effect and 100 is complete control; read-out: Ducksalad plant response rating
Method in brief: as §2

[9] = test system: sedge, umbrella (small-flower umbrella sedge, Cyperus difformis); assay: Test B flooded paddy test; conditions: Cyperus difformis, 250 g ai/ha, Flood; 0 to 100 scale where 0 is no effect and 100 is complete control; read-out: Sedge, Umbrella plant response rating
Method in brief: as §2

rice (Oryra sativa) = assay: Test B flooded paddy test; conditions: Oryza sativa, 250 g ai/ha, Flood; 0 to 100 scale where 0 is no effect and 100 is complete control; read-out: Rice plant response rating
Method in brief: as §2

[10] = test system: ragweed (common ragweed, Ambrosia elatior); assay: Test A postemergence; conditions: Ambrosia artemisiifolia, post-emergence, 240 h
Method in brief: as §1

[11] = test system: barnyardgrass (Echinochloa crus-galli); assay: Test A postemergence; conditions: Echinochloa crus-galli, post-emergence, 240 h
Method in brief: as §1

[12] = test system: ryegrass, Italian (Italian ryegrass, Lolium multiflorum); assay: Test A postemergence; conditions: Lolium multiflorum, post-emergence, 240 h
Method in brief: as §1

Kochia (Kochia scoparia) [13] = assay: Test A postemergence; conditions: Bassia scoparia, post-emergence, 240 h
Method in brief: as §1

[14] = test system: giant foxtail (Setaria faberii); assay: Test A postemergence; conditions: Setaria faberi, post-emergence, 240 h
Method in brief: as §1

[15] = test system: blackgrass (Alopecurus myosuroides); assay: Test A postemergence; conditions: Alopecurus myosuroides, post-emergence, 240 h
Method in brief: as §1

[16] = test system: Galium (catchweed bedstraw, Galium aparine); assay: Test A postemergence; conditions: Galium, post-emergence, 240 h
Method in brief: as §1

[17] = test system: wheat (Triticum aestivum); assay: Test A postemergence; conditions: Triticum aestivum, post-emergence, 240 h
Method in brief: as §1

corn (Zea mays) = assay: Test A postemergence; conditions: Zea mays, post-emergence, 240 h
Method in brief: as §1

[18] = test system: pigweed (Amaranthus retroflexus); assay: Test A postemergence; conditions: Amaranthus retroflexus, post-emergence, 240 h
Method in brief: as §1

[19] = 125 g ai/ha, preemergence, approx. 10 d

CSc1ccccc1NC(=O)[C@H]1C(=O)N(C)C[C@@H]1c1cc(C(F)F)cs1 [Compound 1088] showed a pest or weed control at 31 g/ha ([1]; 31 g ai/ha, Preemergence) of 0%, a pest or weed control at 125 g/ha [1, 19] of 0% and a pest or weed control at 31 g/ha ([2]; 31 g ai/ha, Preemergence) of 0%. It also gave a pest or weed control at 125 g/ha [2, 19] of 30%, a pest or weed control at 31 g/ha ([3]; 31 g ai/ha, Preemergence) of 0% and a pest or weed control at 125 g/ha [3, 19] of 0%. It also gave a pest or weed control at 31 g/ha (Kochia (Kochia scoparia) [4]; 31 g ai/ha, Preemergence) of 30%, a pest or weed control at 125 g/ha (Kochia (Kochia scoparia) [4]; [19]) of 20% and a pest or weed control at 31 g/ha ([5]; 31 g ai/ha, Preemergence) of 0%. It also gave a pest or weed control at 125 g/ha [5, 19] of 100%, a pest or weed control at 31 g/ha ([6]; 31 g ai/ha, Preemergence) of 0% and a pest or weed control at 125 g/ha [6, 19] of 0%. For the same molecule, the pest or weed control at 250 g/ha [7] was 30%, the pest or weed control at 250 g/ha [8] was 75% and the pest or weed control at 250 g/ha [9] was 0%. For the same molecule, the pest or weed control at 250 g/ha (rice (Oryra sativa)) was 0%, the pest or weed control at 125 g/ha ([10]; 125 g ai/ha, postemergence, visual injury on 0 to 100 scale (0 no effect, 100 complete control), approx. 10 d, read-out: Ragweed plant response rating) was 0% and the pest or weed control at 31 g/ha ([10]; Postemergence, 31 g ai/ha, visual injury after approx. 10 d, 0 to 100 scale, 0 no effect, 100 complete control, read-out: Plant response rating, Ragweed) was 0%. It also gave a pest or weed control at 125 g/ha ([11]; 125 g ai/ha, postemergence, visual injury on 0 to 100 scale (0 no effect, 100 complete control), approx. 10 d, read-out: Barnyardgrass plant response rating) of 30%, a pest or weed control at 31 g/ha ([11]; Postemergence, 31 g ai/ha, visual injury after approx. 10 d, 0 to 100 scale, 0 no effect, 100 complete control, read-out: Plant response rating, Barnyardgrass) of 0% and a pest or weed control at 125 g/ha ([12]; 125 g ai/ha, postemergence, visual injury on 0 to 100 scale (0 no effect, 100 complete control), approx. 10 d, read-out: Ryegrass, Italian plant response rating) of 0%. It also gave a pest or weed control at 31 g/ha ([12]; Postemergence, 31 g ai/ha, visual injury after approx. 10 d, 0 to 100 scale, 0 no effect, 100 complete control, read-out: Plant response rating, Ryegrass, Italian) of 0%, a pest or weed control at 125 g/ha (Kochia (Kochia scoparia) [13]; 125 g ai/ha, postemergence, visual injury on 0 to 100 scale (0 no effect, 100 complete control), approx. 10 d, read-out: Kochia plant response rating) of 0% and a pest or weed control at 31 g/ha (Kochia (Kochia scoparia) [13]; Postemergence, 31 g ai/ha, visual injury after approx. 10 d, 0 to 100 scale, 0 no effect, 100 complete control, read-out: Plant response rating, Kochia) of 0%. The pest or weed control at 125 g/ha ([14]; 125 g ai/ha, postemergence, visual injury on 0 to 100 scale (0 no effect, 100 complete control), approx. 10 d, read-out: Foxtail, Giant plant response rating) was 20%, the pest or weed control at 31 g/ha ([14]; Postemergence, 31 g ai/ha, visual injury after approx. 10 d, 0 to 100 scale, 0 no effect, 100 complete control, read-out: Plant response rating, Foxtail, Giant) was 0% and the pest or weed control at 125 g/ha ([15]; 125 g ai/ha, postemergence, visual injury on 0 to 100 scale (0 no effect, 100 complete control), approx. 10 d, read-out: Blackgrass plant response rating) was 0%. For the same molecule, the pest or weed control at 31 g/ha ([15]; Postemergence, 31 g ai/ha, visual injury after approx. 10 d, 0 to 100 scale, 0 no effect, 100 complete control, read-out: Plant response rating, Blackgrass) was 0%, the pest or weed control at 125 g/ha ([16]; 125 g ai/ha, postemergence, visual injury on 0 to 100 scale (0 no effect, 100 complete control), approx. 10 d, read-out: Galium plant response rating) was 30% and the pest or weed control at 31 g/ha ([16]; Postemergence, 31 g ai/ha, visual injury after approx. 10 d, 0 to 100 scale, 0 no effect, 100 complete control, read-out: Plant response rating, Galium) was 20%. The plant injury at 125 g/ha ([17]; 125 g ai/ha, postemergence, visual injury on 0 to 100 scale (0 no effect, 100 complete control), approx. 10 d, read-out: Wheat plant response rating) was 0%, the plant injury at 31 g/ha ([17]; Postemergence, 31 g ai/ha, visual injury after approx. 10 d, 0 to 100 scale, 0 no effect, 100 complete control, read-out: Plant response rating, Wheat) was 0% and the plant injury at 125 g/ha (corn (Zea mays); 125 g ai/ha, postemergence, visual injury on 0 to 100 scale (0 no effect, 100 complete control), approx. 10 d, read-out: Corn plant response rating) was 0%. It also gave a Corn plant response rating (crop injury, 0 = no effect, 100 = complete kill) at 31 g/ha (corn (Zea mays); Postemergence, 31 g ai/ha, visual injury after approx. 10 d, 0 to 100 scale, 0 no effect, 100 complete control) of 0%, a pest or weed control at 125 g/ha ([18]; 125 g ai/ha, postemergence, visual injury on 0 to 100 scale (0 no effect, 100 complete control), approx. 10 d, read-out: Pigweed plant response rating) of 0% and a pest or weed control at 31 g/ha ([18]; Postemergence, 31 g ai/ha, visual injury after approx. 10 d, 0 to 100 scale, 0 no effect, 100 complete control, read-out: Plant response rating, Pigweed) of 0%.
